Assay results: patent US8299056B2 (Signal Pharmaceuticals, LLC, priority 2008, dated 2012)
pIC50: −log10 of the molar value. Where two headings read alike, the source gives them in different places.

Target: T1, Syk (Homo sapiens, UniProt P43405)
T1 construct: purchased Carna Biosciences
Test: Syk HTRF assay
Type: biochemical
Procedure: Test compounds were prepared at a concentration of 1.5 mM in DMSO followed by 3-fold dilutions in Greiner […] polypropylene plates. A 1:4 dilution of compounds by 8 μL/well transfer from the polypropylene plates to 24 μL/well Assay Buffer in Costar 3710 384 well black plates was then performed. Kinases (13 μL/well) or Assay Buffer only (background controls; 50 mM HEPES pH 7.6, 1 mM DTT, 10 mM MgCl2, 0.01% Triton X100, 0.01% BSA and 0.1 mM EDTA) were added to Costar 3710 384-well black plates for the HTRF assays (Carna Biosciences) and compound was added from the 1:4 dilution plate. Syk start mix (87.5 μM ATP, 80 nM Substrate Peptide (American Peptide Company 332722) was added and the mixture was incubated at room temperature for 1 hour. Syk Stop Solution (120 mM EDTA in dilution buffer) was then added to the Syk HTRF assay plate and incubated at room temperature on a shaker for 2 minutes. Syk Antibody Mix (4.86 μg/mL DyLight 647 Streptavidin (Pierce 21824); 1 μg/mL Lance Eu-Anti-Phosphotyrosine (PerkinElmer AD0069)) was added to the Syk HTRF assay plate and the mixture was further incubated at room temperature for >4 h. Time resolved fluorescence was read in assay plates on a PerkinElmer EnVision. HTRF assays were performed using 320 nm excitation, 60 μs delay, 665 nm and 615 nm emission. Data was expressed by division of 665 nm by 615 nm emissions.

[1] = activity levels A-D, read-out: Activity Level (IC50 in the Syk HTRF assay)
[2] = read-out: Activity Level (Syk HTRF assay IC50)
[3] = IC50 activity level, read-out: Activity Level

SMILES	pIC50 [2]	pIC50 [3]	other results
FC(F)(F)c1ccc(Nc2nc3cccc(OC[C@@H]4CCCN4)n3n2)cc1 [Example 303, (S)-5-(pyrrolidin-2-ylmethoxy)-N-(4-(trifluoromethyl)phenyl)-[1,2,4]triazolo[1,5-a]pyridin-2-amine]			pIC50 [1]: 5.00 to 6.00
CN1C(=O)C(C)(C)c2ccc(Nc3nc4cccc(NC5CCOCC5)n4n3)cc21 [Example 151, 1,3,3-trimethyl-6-(5-(tetrahydro-2H-pyran-4-ylamino)-[1,2,4]triazolo[1,5-a]pyridin-2-ylamino)indolin-2-one]	6.60 to 11.30		
COc1cc(-c2cccc3nc(Nc4ccc5c(c4)NC(=O)C5(C)C)nn23)ccn1 [Example 559, 6-(5-(2-methoxypyridin-4-yl)-[1,2,4]triazolo[1,5-a]pyridin-2-ylamino)-3,3-dimethylindolin-2-one]		6.60 to 11.30	
Cc1cc(Nc2nc3cccc(N[C@H]4CC[C@@H](O)CC4)n3n2)cc(C)c1F [Example 279, cis-4-(2-(4-fluoro-3,5-dimethylphenylamino)-[1,2,4]triazolo[1,5-a]pyridin-5-ylamino)cyclohexanol]			pIC50 [1]: 6.60 to 11.30
NC(=O)c1cc(Nc2nc3cccc(-c4ccccc4)n3n2)ccn1 [compound 51, 4-(5-phenyl-[1,2,4]triazolo[1,5-a]pyridin-2-ylamino)picolinamide]	5.00 to 6.00		
NC(=O)c1ccc(Nc2nc3cccc(N[C@H]4CC[C@@H](O)CC4)n3n2)c(F)c1 [Example 340, cis-3-fluoro-4-(5-(4-hydroxycyclohexylamino)-[1,2,4]triazolo[1,5-a]pyridin-2-ylamino)benzamide]			pIC50 [1]: 5.00 to 6.00
COCc1nc2ccc(Nc3nc4cccc(Cc5ccnc(O)c5)n4n3)cc2[nH]1 [compound 130]	6.60 to 11.30		
Nc1n[nH]c2cc(Nc3nc4cccc(NC5CCCNC5)n4n3)ccc12 (stereo in doubt) [Example 450, (R)-N^2-(3-amino-1H-indazol-6-yl)-N^5-(piperidin-3-yl)-[1,2,4]triazolo[1,5-a]pyridin-2,5-diamine]		6.60 to 11.30	
CNc1cc(Nc2nc3cccc(N[C@H]4CC[C@@H](O)CC4)n3n2)ccn1 [Example 366, cis-4-(2-(2-(methylamino)pyridin-4-ylamino)-[1,2,4]triazolo[1,5-a]pyridin-5-ylamino)cyclohexanol]			pIC50 [1]: 6.60 to 11.30
c1cc(NC2CCOCC2)n2nc(Nc3cnc4cn[nH]c4c3)nc2c1 [compound 111]	5.00 to 6.00		
c1ccc(Nc2nc3cccc(Nc4ccccn4)n3n2)cc1 [Example 484, N^2-phenyl-N^5-(pyridin-2-yl)-[1,2,4]triazolo[1,5-a]pyridin-2,5-diamine]		6.00 to 6.30	
O[C@H]1CC[C@@H](Nc2cccc3nc(Nc4ccc5[nH]nnc5c4)nn23)CC1 [Example 237, cis-4-(2-(1H-benzo[d][1,2,3]triazolo-5-ylamino)-[1,2,4]triazolo[1,5-a]pyridin-5-ylamino)cyclohexanol]			pIC50 [1]: 6.60 to 11.30
COc1cncc(Nc2nc3cccc(-c4ccccc4)n3n2)c1 [compound 38, N-(5-methoxypyridin-3-yl)-5-phenyl-[1,2,4]triazolo[1,5-a]pyridin-2-amine]	6.00 to 6.30		
CNC(=O)c1ccc(Nc2nc3cccc(-c4cc(Cl)cc(CCCN)c4)n3n2)cc1 [compound 6, 4-(5-(3-(3-aminopropyl)-5-chlorophenyl)-[1,2,4]triazolo-[1,5-a]pyridin-2-ylamino)-N-methylbenzamide]	6.60 to 11.30		
COCc1n[nH]c2cc(Nc3nc4cccc(CC5CCOCC5)n4n3)ccc12 [compound 104, N-(3-(methoxymethyl)-1H-indazol-6-yl)-5-((tetrahydro-2H-pyran-4-yl)methyl)-[1,2,4]triazolo[1,5-a]pyridin-2-amine]	6.60 to 11.30		
c1ccc(Nc2nc3cccc(N[C@H]4CCCNC4)n3n2)cc1 [Example 507, (S)-N^2-phenyl-N^5-(piperidin-3-yl)-[1,2,4]triazolo[1,5-a]pyridin-2,5-diamine]		6.60 to 11.30	
CC1(C)C(=O)Nc2cc(Nc3nc4cccc(C[C@H]5CC[C@](C)(O)CC5)n4n3)ccc21 [Example 140, cis-6-(5-((4-hydroxy-4-methylcyclohexyl)methyl)-[1,2,4]triazolo[1,5-a]pyridin-2-ylamino)-3,3-dimethylindolin-2-one]	6.60 to 11.30		
NC(=O)c1cc(Nc2nc3cccc(N[C@H]4CC[C@@H](O)CC4)n3n2)ccc1F [Example 318, cis-2-fluoro-5-(5-(4-hydroxycyclohexylamino)-[1,2,4]triazolo[1,5-a]pyridin-2-ylamino)benzamide]			pIC50 [1]: 5.00 to 6.00
O[C@H]1CC[C@@H](Nc2cccc3nc(Nc4ccc(C(F)(F)F)cc4)nn23)CC1 [Example 453, cis-4-(2-(4-(trifluoromethyl)phenylamino)-[1,2,4]triazolo[1,5-a]pyridin-5-ylamino)cyclohexanol]		6.60 to 11.30	
c1ccc(Nc2nc3cccc(Nc4ccccc4)n3n2)cc1 [Example 529, N^2,N^5-diphenyl-[1,2,4]triazolo[1,5-a]pyridine-2,5-diamine]		6.30 to 6.60	
Cc1n[nH]c2cc(Nc3nc4cccc(C(F)(F)C5CCOCC5)n4n3)ccc12 [Example 562, 5-(difluoro(tetrahydro-2H-pyran-4-yl)methyl)-N-(3-methyl-1H-indazol-6-yl)-[1,2,4]triazolo[1,5-a]pyridin-2-amine]		6.60 to 11.30	
c1ccc(Nc2nc3cccc(C4CCNCC4)n3n2)cc1 [Example 512, N-phenyl-5-(piperidin-4-yl)-[1,2,4]triazolo[1,5-a]pyridin-2-amine]		5.00 to 6.00	
CNC(=O)c1ccc(Nc2nc3cccc(-c4cccc(-c5cnc[nH]5)c4)n3n2)cc1 [compound 7, 4-(5-(3-(1H-imidazol-5-yl)phenyl)-[1,2,4]triazolo[1,5-a]pyridin-2-ylamino)-N-methylbenzamide]	6.60 to 11.30		
O[C@@H]1CCCC1Nc1cccc2nc(Nc3ccc(C(F)(F)F)cc3)nn12 (stereo in doubt) [Example 377, (1R,2R)-2-(2-(4-(trifluoromethyl)phenylamino)-[1,2,4]triazolo[1,5-a]pyridin-5-ylamino)cyclopentanol]			pIC50 [1]: 6.60 to 11.30
CNCc1nc2ccc(-c3cccc4nc(Nc5ccc(C(F)(F)F)cc5)nn34)cc2[nH]1 [Example 440, 5-(2-((methylamino)methyl)-1H-benzo[d]imidazol-6-yl)-N-(4-(trifluoromethyl)phenyl)-[1,2,4]triazolo[1,5-a]pyridin-2-amine]		6.60 to 11.30	
CNC(=O)c1ccc(Nc2nc3cccc(Cc4cccc(O)c4)n3n2)cc1 [Example 292, 4-(5-(3-hydroxybenzyl)-[1,2,4]triazolo[1,5-a]pyridin-2-ylamino)-N-methylbenzamide]			pIC50 [1]: 6.60 to 11.30

More lines, main results first:

pIC50 [2]	pIC50 [3]	SMILES	other results
6.30 to 6.60		CC1(C)NC(=O)c2cc(Nc3nc4cccc(N[C@H]5CC[C@@H](O)CC5)n4n3)ccc21 [compound 120, cis-6-(5-(4-hydroxycyclohexylamino)-[1,2,4]triazolo[1,5-a]pyridin-2-ylamino)-3,3-dimethylisoindolin-1-one]	
6.30 to 6.60		NCCNc1cc(Nc2nc3cccc(-c4ccccc4)n3n2)ccn1 [compound 39]	
6.00 to 6.30		c1cc(CC2CCOCC2)n2nc(Nc3cnc4cn[nH]c4c3)nc2c1 [compound 106, N-(5-((tetrahydro-2H-pyran-4-yl)methyl)-[1,2,4]triazolo[1,5-a]pyridin-2-yl)-1H-pyrazolo[4,3-b]pyridin-6-amine]	
	6.60 to 11.30	Cc1cc(Nc2nc3cccc(CN4CCNC(=O)C4)n3n2)cc2c1C(C)(C)C(=O)N2 [Example 546]	
6.30 to 6.60		Cc1n[nH]c2ccc(Nc3nc4cccc(N[C@@H]5CCOC5)n4n3)cc12 [compound 115]	
6.60 to 11.30		Cc1nc2ccc(Nc3nc4cccc(-c5cccc(O)c5)n4n3)cc2[nH]1 [compound 10, 3-(2-(2-methyl-1H-benzo[d]imidazol-6-ylamino)-[1,2,4]triazolo[1,5-a]pyridin-5-yl)phenol]	
	6.60 to 11.30	O[C@H]1CC[C@@H](Nc2cccc3nc(Nc4ccccc4)nn23)CC1 [Example 471, cis-4-(2-(phenylamino)-[1,2,4]triazolo[1,5-a]pyridin-5-ylamino)cyclohexanol]	
5.00 to 6.00		NC(=O)c1ccc(Nc2nc3cccc(-c4ccccc4)n3n2)cn1 [compound 72, 5-(5-phenyl-[1,2,4]triazolo[1,5-a]pyridin-2-ylamino)picolinamide]	
	5.00 to 6.00	OC(c1cccc2nc(Nc3ccccc3)nn12)C1CCN(Cc2ccccc2)CC1 (centres unmarked) [Example 491, (1-benzylpiperidin-4-yl)(2-(phenylamino)-[1,2,4]triazolo[1,5-a]pyridin-5-yl)methanol]	
6.60 to 11.30		CC1(O)CN(c2cccc3nc(Nc4ccc5c(c4)NC(=O)C5(C)C)nn23)C1 [Example 171, 6-(5-(3-hydroxy-3-methylazetidin-1-yl)-[1,2,4]triazolo[1,5-a]pyridin-2-ylamino)-3,3-dimethylindolin-2-one]	
6.60 to 11.30		O=C(O)c1ccc(Nc2nc3cccc(-c4cccc(O)c4)n3n2)cc1 [compound 25, 4-(5-(3-hydroxyphenyl)-[1,2,4]triazolo[1,5-a]pyridin-2-ylamino)benzoic acid]	
	5.00 to 6.00	C[C@@H](CN)Cc1cccc2nc(Nc3ccccc3)nn12 [Example 458, (R)-5-(3-amino-2-methylpropyl)-N-phenyl-[1,2,4]triazolo[1,5-a]pyridin-2-amine]	
